In ChEMBL document CHEMBL2311308, “From partial to full agonism: identification of a novel 2,4,5,6-tetrahydropyrrolo[3,4-c]pyrazole as a full agonist of the human GPR119 receptor” (Bioorg Med Chem Lett, 2013):

How the values were obtained:
[1] = target: T1, Glucose-dependent insulinotropic receptor (Homo sapiens) (UniProt Q8TDV5); assay: Intrinsic activity at human recombinant GPR119 expressed in HEK293 cells co-expressing CRE beta-lactamase assessed as cAMP accumulation at 10 uM by HTRF assay relative to control; assay type: functional, cell-based
T1 sequence (whole entry): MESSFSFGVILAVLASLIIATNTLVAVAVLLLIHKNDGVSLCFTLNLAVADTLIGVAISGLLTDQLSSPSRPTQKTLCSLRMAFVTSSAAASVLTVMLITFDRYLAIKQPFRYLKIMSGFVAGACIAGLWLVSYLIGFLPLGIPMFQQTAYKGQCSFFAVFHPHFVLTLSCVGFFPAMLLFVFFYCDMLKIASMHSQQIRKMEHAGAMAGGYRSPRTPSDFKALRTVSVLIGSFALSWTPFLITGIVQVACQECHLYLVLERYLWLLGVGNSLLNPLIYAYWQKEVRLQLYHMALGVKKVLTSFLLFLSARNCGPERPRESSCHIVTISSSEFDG

[2] = target: T2, Glucose-dependent insulinotropic receptor (Homo sapiens, UniProt Q8TDV5); assay: Agonist activity at human GPR119 expressed in HEK293 cells co-expressing CRE beta-lactamase assessed as cAMP accumulation by HTRF assay; assay type: functional, cell-based
T2 sequence (Q8TDV5 whole entry): T1 sequence (whole entry)

physchem = conditions: buffer, pH 7.4
[3] = Intrinsic clearance in human liver microsomes; assay type: ADME, Microsome; conditions: read-out: CLH

Structure (SMILES): CC(C)COC(=O)N1CCC(n2cc(CNc3ccc(S(C)(=O)=O)cc3F)cn2)CC1
- Intrinsic activity [1]: 24%
- EC50 [2]: 240 nM
- logD (physchem): 2.8

Structure (SMILES): CC(C)OC(=O)N1CCC(N2Cc3cn(-c4ccc(S(C)(=O)=O)cc4F)nc3C2)CC1
- microsomal CLint [3]: 10.5 µL/min/mg
- Intrinsic activity [1]: 105%
- EC50 [2]: 864 nM

Structure (SMILES): CCc1cnc(N2CCC([N+]3([O-])Cc4cn(-c5ccc(S(C)(=O)=O)cc5F)nc4C3)CC2)nc1 (stereo unspecified)
- microsomal CLint [3]: 9.8 µL/min/mg
- Intrinsic activity [1]: 107%
- EC50 [2]: 498 nM
- logD (physchem): 1.1

Structure (SMILES): CS(=O)(=O)c1ccc(NCc2cnn(C3CCN(C(=O)OC4CCC4)CC3)c2)c(F)c1
- Intrinsic activity [1]: 42%
- EC50 [2]: 462 nM
- logD (physchem): 2.5

Structure (SMILES): CC(C)OC(=O)N1CCC(n2cc3c(n2)CN(c2ccc(S(C)(=O)=O)cc2F)C3)CC1
- microsomal CLint [3]: 36.1 µL/min/mg
- Intrinsic activity [1]: 48%
- EC50 [2]: 260 nM
- logD (physchem): 3.2

Structure (SMILES): Cc1nc(S(C)(=O)=O)ccc1NCc1cnn(C2CCN(C(=O)OC(C)C)CC2)c1
- EC50 [2]: > 10000 nM
- logD (physchem): 1.6

Structure (SMILES): CC(C)OC(=O)N1CCC(n2cc(CNc3ccc(S(C)(=O)=O)cc3F)cn2)CC1
- microsomal CLint [3]: 9.7 µL/min/mg
- Intrinsic activity [1]: 41%
- EC50 [2]: 181 nM
- logD (physchem): 2.3

Structure (SMILES): CCc1cnc(OC(=O)N2CCC(n3cc(CNc4ccc(S(C)(=O)=O)cc4F)cn3)CC2)nc1
- microsomal CLint [3]: 148 µL/min/mg
- Intrinsic activity [1]: 43%
- EC50 [2]: 47 nM
- logD (physchem): 3

Structure (SMILES): CCc1cnc(N2CCC(N3Cc4cn(-c5ccc(S(C)(=O)=O)cc5F)nc4C3)CC2)nc1
- microsomal CLint [3]: 23 µL/min/mg
- Intrinsic activity [1]: 118%
- EC50 [2]: 83 nM
- logD (physchem): 2.9
